These molecules were tested against neurotensin receptor 1 (NTR1) (Homo sapiens (Human), UniProt P30989) (assay: NTR1 dose response, high-content imaging beta-arrestin-GFP assay in NTR1-U2OS cells). Conditions: read-out: EC50.
Assay type: cell-based

Sequence of neurotensin receptor 1 (NTR1) (P30989 whole entry, species assumed): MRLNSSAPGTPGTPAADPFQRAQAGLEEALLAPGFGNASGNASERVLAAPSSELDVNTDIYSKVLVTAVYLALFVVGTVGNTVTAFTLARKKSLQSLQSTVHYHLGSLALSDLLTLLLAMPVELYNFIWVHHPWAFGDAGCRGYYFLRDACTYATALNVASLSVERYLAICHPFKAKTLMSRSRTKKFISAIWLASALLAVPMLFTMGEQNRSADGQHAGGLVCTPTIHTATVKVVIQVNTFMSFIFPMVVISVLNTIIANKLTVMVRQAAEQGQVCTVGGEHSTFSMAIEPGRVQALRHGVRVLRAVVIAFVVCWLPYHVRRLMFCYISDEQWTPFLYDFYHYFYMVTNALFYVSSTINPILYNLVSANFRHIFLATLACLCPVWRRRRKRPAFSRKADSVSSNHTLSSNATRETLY

SMILES	EC50
COc1ccc(F)cc1C1CCN(c2nc(C3CC3)nc3cc(Cl)c(N(C)CCO)cc23)CC1 [Example 113, 2-({7-chloro-2-cyclopropyl-4-[4-(5-fluoro-2-methoxy-phenyl)-piperidin-1-yl]-quinazolin-6-yl}-methyl-amino)-ethanol]	2000 to 10000 nM
COc1cc(F)ccc1C1CCN(c2nc(C3CC3)nc3cc(C)c(N(C)CCO)cc23)CC1 [Example 114, 2-({2-cyclopropyl-4-[4-(4-fluoro-2-methoxy-phenyl)-piperidin-1-yl]-7-methyl-quinazolin-6-yl}-methyl-amino)-ethanol]	2000 to 10000 nM
COc1ccc(F)cc1C1CCN(c2nc(C3CC3)nc3cc(C)c(N(C)CCO)cc23)CC1 [Example 115, 2-({2-cyclopropyl-4-[4-(5-fluoro-2-methoxy-phenyl)-piperidin-1-yl]-7-methyl-quinazolin-6-yl}-methyl-amino)-ethanol]	2000 to 10000 nM
Cc1cc2nc(C3CC3)nc(N3CCC(c4ccccc4N(C)C)CC3)c2cc1N(C)CCO [Example 116, 2-({2-cyclopropyl-4-[4-(2-dimethylamino-phenyl)-piperidin-1-yl]-7-methyl-quinazolin-6-yl}-methyl-amino)-ethanol]	500 to 2000 nM
COc1ccccc1C1CCN(c2nc(C3CC3)nc3cc(C)c(N(C)CCO)cc23)CC1 [Example 117, 2-({2-cyclopropyl-4-[4-(2-methoxy-phenyl)-piperidin-1-yl]-7-methyl-quinazolin-6-yl}-methyl-amino)-ethanol]	< 500 nM
CN(C)c1ccccc1C1CCN(c2nc(C3CC3)nc3cc(Cl)c(N(C)CCO)cc23)CC1 [Example 118, 2-({7-chloro-2-cyclopropyl-4-[4-(2-dimethylamino-phenyl)-piperidin-1-yl]-quinazolin-6-yl}-methyl-amino)-ethanol]	2000 to 10000 nM
CN(CCO)c1cc2c(N3CCC(c4ccccc4N4CCC4)CC3)nc(C3CC3)nc2cc1Cl [Example 119, 2-({4-[4-(2-azetidin-1-yl-phenyl)-piperidin-1-yl]-7-chloro-2-cyclopropyl-quinazolin-6-yl}-methyl-amino)-ethanol]	2000 to 10000 nM
CN(C)c1ccccc1C1CCN(c2nc(C3CC3)nc3cc(F)c(N(C)CCO)cc23)CC1 [Example 120, 2-({2-cyclopropyl-4-[4-(2-dimethylamino-phenyl)-piperidin-1-yl]-7-fluoro-quinazolin-6-yl}-methyl-amino)-ethanol]	< 500 nM
Cc1cc2nc(C3CC3)nc(N3CCC(c4ccccc4N4CCC4)CC3)c2cc1N(C)CCO [Example 121, 2-({4-[4-(2-azetidin-1-yl-phenyl)-piperidin-1-yl]-2-cyclopropyl-7-methyl-quinazolin-6-yl}-methyl-amino)-ethanol]	500 to 2000 nM
CCCN(C)c1cc2c(N3CCC(c4ccccc4OC)CC3)nc(C3CC3)nc2cc1C [Example 122, {2-cyclopropyl-4-[4-(2-methoxy-phenyl)-piperidin-1-yl]-7-methyl-quinazolin-6-yl}-methyl-propyl-amine]	500 to 2000 nM
CCCN(C)c1cc2c(N3CCC(c4cc(F)ccc4OC)CC3)nc(C3CC3)nc2cc1C [Example 123, {2-cyclopropyl-4-[4-(5-fluoro-2-methoxy-phenyl)-piperidin-1-yl]-7-methyl-quinazolin-6-yl}-methyl-propyl-amine]	> 10000 nM
COc1ccccc1C1CCN(c2nc(C3CC3)nc3c(C)cc(N(C)CCO)cc23)CC1 [Example 125, 2-({2-cyclopropyl-4-[4-(2-methoxy-phenyl)-piperidin-1-yl]-8-methyl-quinazolin-6-yl}-methyl-amino)-ethanol]	< 500 nM
COc1ccccc1C1CCN(c2nc(C3CC3)nc3ccc(N(C)CCO)c(C)c23)CC1 [Example 126, 2-({2-cyclopropyl-4-[4-(2-methoxy-phenyl)-piperidin-1-yl]-5-methyl-quinazolin-6-yl}-methyl-amino)-ethanol]	500 to 2000 nM
CCCN(C)c1cccc2c(N3CCC(c4ccccc4OC)CC3)nc(C3CC3)nc12 [Example 128, {2-cyclopropyl-4-[4-(2-methoxy-phenyl)-piperidin-1-yl]-quinazolin-8-yl}-methyl-propyl-amine]	> 10000 nM
COc1ccccc1C1CCN(c2nc(C3CC3)nc3c(N(C)CCN4CCOCC4)cccc23)CC1 [Example 129, {2-cyclopropyl-4-[4-(2-methoxy-phenyl)-piperidin-1-yl]-quinazolin-8-yl}-methyl-(2-morpholin-4-yl-ethyl)-amine]	> 10000 nM
COc1ccccc1C1CCN(c2nc(C3CC3)nc3c(Cl)cc(N(C)CCO)cc23)CC1 [Example 130, 2-({8-chloro-2-cyclopropyl-4-[4-(2-methoxy-phenyl)-piperidin-1-yl]-quinazolin-6-yl}-methyl-amino)-ethanol]	< 500 nM
CCCN(C)c1cccc2nc(C3CC3)nc(N3CCC(c4ccccc4OC)CC3)c12 [Example 131, {2-cyclopropyl-4-[4-(2-methoxy-phenyl)-piperidin-1-yl]-quinazolin-5-yl}-methyl-propyl-amine]	2000 to 10000 nM
COc1ccccc1C1CCN(c2nc(C3CC3)nc3ccc(N(C)CCO)c(F)c23)CC1 [Example 132, 2-((2-cyclopropyl-5-fluoro-4-(4-(2-methoxyphenyl)piperidin-1-yl)quinazolin-6-yl)(methyl)amino)ethanol]	500 to 2000 nM

SMILES	EC50
COc1ccccc1C1CCN(c2nc(C3CC3)nc3c(F)cc(N(C)CCO)cc23)CC1 [Example 133, 2-((2-cyclopropyl-8-fluoro-4-(4-(2-methoxyphenyl)piperidin-1-yl)quinazolin-6-yl)(methyl)amino)ethanol]	< 500 nM
COc1ccccc1C1CCN(c2nc(C3CC3)nc3cnc(N(C)CCN4CCOCC4)cc23)CC1 [Example 134, 2-cyclopropyl-4-(4-(2-methoxyphenyl)piperidin-1-yl)-N-methyl-N-(2-morpholinoethyl)pyrido[3,4-d]pyrimidin-6-amine]	500 to 2000 nM
CCCN(C)c1ccc2c(N3CCC(c4ccccc4OC)CC3)nc(C3CC3)nc2c1 [Example 135, 2-cyclopropyl-4-(4-(2-methoxyphenyl)piperidin-1-yl)-N-methyl-N-propylquinazolin-7-amine]	> 10000 nM
COc1ccccc1C1CCN(c2nc(C#CC3CC3)nc3ccc(N(C)CCO)cc23)CC1 [Example 136, 2-((2-(cyclopropylethynyl)-4-(4-(2-methoxyphenyl)piperidin-1-yl)quinazolin-6-yl)(methyl)amino)ethanol]	2000 to 10000 nM
COc1ccccc1C1CCN(c2nc(C3CC3)nc3cnc(N(C)CCO)cc23)CC1 [Example 137, 2-({2-cyclopropyl-4-[4-(2-methoxy-phenyl)-piperidin-1-yl]-pyrido[3,4-d]pyrimidin-6-yl}-methyl-amino)-ethanol]	< 500 nM
COc1ccsc1C1CCN(c2nc(C3CC3)nc3ccc(N(C)CCO)cc23)CC1 [Example 138, 2-((2-cyclopropyl-4-(4-(3-methoxythiophen-2-yl)piperidin-1-yl)quinazolin-6-yl)(methyl)amino)ethanol]	500 to 2000 nM
CN(CCO)c1ccc2nc(C3(F)CC3)nc(N3CCC(C4CCCCC4)CC3)c2c1 [Example 139, 2-((4-(4-cyclohexylpiperidin-1-yl)-2-(1-fluorocyclopropyl)quinazolin-6-yl)(methyl)amino)ethanol]	> 10000 nM
CN(CCO)c1ccc2nc(C3CC3)nc(N3CCN(C4CCCC4O)CC3)c2c1 (stereo not drawn) [Example 140, 2-(4-{2-cyclopropyl-6-[(2-hydroxy-ethyl)-methyl-amino]-quinazolin-4-yl}-piperazin-1-yl)-cyclopentanol]	> 10000 nM
CCCN(C)c1ccc2nc(C3CC3)nc(N3CCN(C4CCCC4O)CC3)c2c1 (stereo not drawn) [Example 141, 2-{4-[2-cyclopropyl-6-(methyl-propyl-amino)-quinazolin-4-yl]-piperazin-1-yl}-cyclopentanol]	> 10000 nM
CN(CCN1CCOCC1)c1ccc2nc(C3CC3)nc(N3CCN(C4CCCC4O)CC3)c2c1 (stereo not drawn) [Example 142, 2-(4-{2-cyclopropyl-6-[methyl-(2-morpholin-4-yl-ethyl)-amino]-quinazolin-4-yl}-piperazin-1-yl)-cyclopentanol]	> 10000 nM
COc1ccccc1C1CCN(c2nc(-c3ccccc3)nc3ccc(N(C)C)cc23)CC1 [Example 143]	> 10000 nM
COc1ccccc1C1CCN(c2nc(-c3ccccc3)nc3ccc(N(C)CCO)cc23)CC1 [Example 144, 2-({4-[4-(2-methoxy-phenyl)-piperidin-1-yl]-2-phenyl-quinazolin-6-yl}-methyl-amino)-ethanol]	2000 to 10000 nM
COCCN(C)c1ccc2nc(-c3ccccc3)nc(N3CCC(c4ccccc4OC)CC3)c2c1 [Example 145, (2-methoxy-ethyl)-{4-[4-(2-methoxy-phenyl)-piperidin-1-yl]-2-phenyl-quinazolin-6-yl}-methyl-amine]	> 10000 nM
CCCN(C)c1ccc2nc(-c3ccccc3)nc(N3CCC(c4ccccc4OC)CC3)c2c1 [Example 146, {4-[4-(2-methoxy-phenyl)-piperidin-1-yl]-2-phenyl-quinazolin-6-yl}-methyl-propyl-amine]	> 10000 nM
COc1ccccc1C1CCN(c2nc(-c3ccccc3)nc3ccc(N(C)CCN4CCOCC4)cc23)CC1 [Example 147, {4-[4-(2-methoxy-phenyl)-piperidin-1-yl]-2-phenyl-quinazolin-6-yl}-methyl-(2-morpholin-4-yl-ethyl)-amine]	> 10000 nM
COc1cccc2c1CN(c1nc(C3CC3)nc3ccc(N(C)CCO)cc13)C2 [Example 149, 2-{[2-cyclopropyl-4-(4-methoxy-1,3-dihydro-isoindol-2-yl)-quinazolin-6-yl]-methyl-amino}-ethanol]	> 10000 nM
COc1cccc2c1CCN(c1nc(C3CC3)nc3ccc(N(C)CCO)cc13)CC2 [Example 150, 2-{[2-cyclopropyl-4-(6-methoxy-1,2,4,5-tetrahydro-benzo[d]azepin-3-yl)-quinazolin-6-yl]-methyl-amino}-ethanol]	> 10000 nM
COc1ccccc1N(C)C1CCCC1Nc1nc(C2CC2)nc2ccc(N(C)CCO)cc12 (stereo not drawn) [Example 151, 2-[(2-cyclopropyl-4-{2-[(2-methoxy-phenyl)-methyl-amino]-cyclopentylamino}-quinazolin-6-yl)-methyl-amino]-ethanol]	> 10000 nM
